Experimental findings from patent US20250186391A1, “ORAL COMPLEMENT FACTOR D INHIBITORS” (BioCryst Pharmaceuticals, Inc., priority 2019, published 2025) are described below.

Structures are written as SMILES. Where only a bound is given, the exact number is not on record here.

Usually IC50 stands for the concentration at which inhibition is half-maximal.

Sequence of Factor D (P00746 26-253): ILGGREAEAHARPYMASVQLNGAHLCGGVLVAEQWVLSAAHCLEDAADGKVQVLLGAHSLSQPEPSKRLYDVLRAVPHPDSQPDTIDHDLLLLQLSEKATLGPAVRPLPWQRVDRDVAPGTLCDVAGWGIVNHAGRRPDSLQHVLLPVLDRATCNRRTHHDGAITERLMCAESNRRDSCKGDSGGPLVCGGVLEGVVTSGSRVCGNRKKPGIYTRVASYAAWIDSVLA

The target of this assay is Factor D (Homo sapiens (Human), UniProt P00746). The assay can be described thus: Factor D esterolytic assay. The class given is biochemical. Conditions: Z-Lys-SBzl substrate, 100 mM HEPES, 500 mM NaCl, pH 7.5, 10% DMSO; tested a minimum of three times; read-out: Measured Ki (IC50) Value for Compounds: IC50. Summed up:
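Chromogenic thioesterase read-out: Z-Lys-SBzl (1.29 mM) hydrolysis by human Factor D, thiol detected with DTNB at 405 nm (690 nm background subtracted) for 600 s. Run in 100 mM HEPES, 500 mM NaCl, pH 7.5, 10% DMSO, substrate added immediately or after room-temperature preincubation. IC50 from percent inhibition versus enzyme alone, n≥3.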
On to `NCc1cccc(-c2cccc3occ(COc4ccccc4CC(=O)O)c23)c1` [Compound 97h, 2-(2-((4-(3-(aminomethyl)phenyl)benzofuran-3-yl)methoxy)phenyl)acetic acid], for which the 50% inhibitory concentration (IC50) is more than 10 µM. As for `COc1ccc(CC(=O)O)c(OCc2c(C)oc3ccc(-c4cccc([C@H](N)CO)c4)cc23)c1` [Compound 241c, (S)-2-(2-((5-(3-(1-amino-2-hydroxyethyl)phenyl)-2-methylbenzofuran-3-yl)methoxy)-4-methoxyphenyl)acetic acid], the IC50 was less than 1 µM. In the case of `COc1ccc(CC(=O)O)c(OCc2c(C)oc3ccc(-c4cc(F)cc(CN)c4)cc23)c1` [Compound 239c, 2-(2-((5-(3-(aminomethyl)-5-fluorophenyl)-2-methylbenzofuran-3-yl)methoxy)-4-methoxyphenyl)acetic acid], the IC50 is less than 1 µM.

Regarding `CCCc1oc2ccc(-c3cccc(CN)c3)cc2c1COc1cc(OC)ccc1CC(=O)O` [Compound 284e, 2-(2-((5-(3-(aminomethyl)phenyl)-2-propylbenzofuran-3-yl)methoxy)-4-methoxyphenyl)acetic acid], the IC50 is less than 1 µM. Take `NCc1cccc(-c2ccc3c(c2)c(COc2ccccc2CC(=O)O)nn3C2CCCCO2)c1` (stereo not shown) [Compound 80d, 2-(2-((5-(3-(aminomethyl)phenyl)-1-(tetrahydro-2H-pyran-2-yl)-1H-indazol-3-yl)methoxy)phenyl)acetic acid]: the IC50 is less than 1 µM.

Regarding `CC(C)(C)OC(=O)n1cc(COc2ccccc2CC(=O)O)c2cc(-c3cccc(CN)c3)ccc21` [Compound 75d, 2-(2-((5-(3-(aminomethyl)phenyl)-1-(tert-butoxycarbonyl)-1H-indol-3-yl)methoxy)phenyl)acetic acid], the IC50 was less than 1 µM. Consider `Cn1ccc(COc2cc(-c3cccc(CN)c3)cc3c(COc4ccccc4CC(=O)O)coc23)n1` [Compound 198f, 2-(2-((5-(3-(aminomethyl)phenyl)-7-((1-methyl-1H-pyrazol-3-yl)methoxy)benzofuran-3-yl)methoxy)phenyl)acetic acid], for which the IC50 is less than 1 µM. As to `NCc1cccc(-c2cc(CN3CCNCC3)c3occ(COc4ccccc4CC(=O)O)c3c2)c1` [Compound 122b, 2-(2-((5-(3-(aminomethyl)phenyl)-7-(piperazin-1-ylmethyl)benzofuran-3-yl)methoxy)phenyl)acetic acid], the half-maximal inhibitory concentration (IC50) was less than 1 µM. For the compound `NCc1cccc(-c2ccc3snc(COc4ccccc4CC(=O)O)c3c2)c1` [Compound 93e, 2-(2-((5-(3-(aminomethyl)phenyl)benzo[d]isothiazol-3-yl)methoxy)phenyl)acetic acid], the half-maximal inhibitory concentration (IC50) is less than 1 µM. Regarding `NCc1cccc(-c2cc(CN3CCC[C@H]3C(F)(F)F)c3occ(COc4ccccc4CC(=O)O)c3c2)c1` [Compound 178f, (S)-2-(2-((5-(3-(aminomethyl)phenyl)-7-((2-(trifluoromethyl)pyrrolidin-1-yl)methyl)benzofuran-3-yl)methoxy)phenyl)acetic acid], the IC50 is less than 1 µM. `NCc1cccc(-c2ccc3occ(COc4cc(C(F)(F)F)ccc4CC(=O)O)c3c2)c1` [Compound 118d, 2-(2-((5-(3-(aminomethyl)phenyl)benzofuran-3-yl)methoxy)-4-(trifluoromethyl)phenyl)acetic acid]: the half-inhibitory concentration (IC50) was less than 1 µM. For the compound `NCc1cccc(-c2ccc3[nH]nc(C(=O)Nc4ccccc4CC(=O)O)c3c2)c1` [Compound 78e, 2-(2-(5-(3-(aminomethyl)phenyl)-1H-indazole-3-carboxamido)phenyl)acetic acid], the half-maximal inhibitory concentration (IC50) was less than 1 µM. Consider `NCc1cccc(-c2cc(CN3CCC3)c3occ(COc4ccccc4CC(=O)O)c3c2)c1` [Compound 207d, 2-(2-((5-(3-(aminomethyl)phenyl)-7-(azetidin-1-ylmethyl)benzofuran-3-yl)methoxy)phenyl)acetic acid], for which the concentration for half-maximal inhibition (IC50) was less than 1 µM. Regarding `COc1ccc(CC(=O)O)c(OCc2coc3c(OCC4CC4)cc(-c4cccc(CN)c4)cc23)c1` [Compound 160c, 2-(2-((5-(3-(aminomethyl)phenyl)-7-(cyclopropylmethoxy)benzofuran-3-yl)methoxy)-4-methoxyphenyl)acetic acid], the 50% inhibitory concentration (IC50) is less than 1 µM. As to `NCc1cccc(-c2ccc3occ(COc4cc(C(N)=O)ccc4CC(=O)O)c3c2)c1` [Compound 63c, 2-(2-((5-(3-(aminomethyl)phenyl)benzofuran-3-yl)methoxy)-4-carbamoylphenyl)acetic acid], the half-maximal inhibitory concentration (IC50) was less than 1 µM. As to `NCc1cccc(-c2cc(/C=C/C3CC3)c3occ(COc4ccccc4CC(=O)O)c3c2)c1` [Compound 132d, (E)-2-(2-((5-(3-(aminomethyl)phenyl)-7-(2-cyclopropylvinyl)benzofuran-3-yl)methoxy)phenyl)acetic acid], the IC50 is less than 1 µM.

Take `Cc1cccc(-c2cc(-c3cccc(CN)c3)cc3c(COc4ccccc4CC(=O)O)coc23)c1` [Compound 197c, 2-(2-((5-(3-(aminomethyl)phenyl)-7-(m-tolyl)benzofuran-3-yl)methoxy)phenyl)acetic acid]: the IC50 is less than 1 µM.

As to `Cc1ccc(CC(=O)O)c(OCc2c(C)oc3ccc(-c4cccc(CN)c4)cc23)c1` [Compound 131c, 2-(2-((5-(3-(aminomethyl)phenyl)-2-methylbenzofuran-3-yl)methoxy)-4-methylphenyl)acetic acid], the IC50 was less than 1 µM. As to `CC(C)Nc1cc(-c2cccc(CN)c2)cc2c(COc3ccccc3CC(=O)O)coc12` [Compound 148d, 2-(2-((5-(3-(aminomethyl)phenyl)-7-(isopropylamino)benzofuran-3-yl)methoxy)phenyl)acetic acid], the IC50 is less than 1 µM. In the case of `COc1ccc(CC(=O)O)c(OCc2nn(C)c3ccc(-c4ccnc(CN)c4F)cc23)c1` [Compound 316c, 2-(2-((5-(2-(aminomethyl)-3-fluoropyridin-4-yl)-1-methyl-1H-indazol-3-yl)methoxy)-4-methoxyphenyl)acetic acid] it was less than 1 µM; in that of `COc1ccc(CC(=O)O)c(OCc2c(C(F)F)oc3ccc(-c4cccc(CN)c4)cc23)c1` [Compound 215d, 2-(2-((5-(3-(aminomethyl)phenyl)-2-(difluoromethyl)benzofuran-3-yl)methoxy)-4-methoxyphenyl)acetic acid], less than 1 µM. Turning to `NCc1cccc(-c2ccc3occ(COc4cccc(F)c4CC(=O)O)c3c2)c1` [Compound 126f, 2-(2-((5-(3-(aminomethyl)phenyl)benzofuran-3-yl)methoxy)-6-fluorophenyl)acetic acid], the IC50 is less than 1 µM. With `CC(C)CNc1cc(-c2cccc(CN)c2)cc2c(COc3ccccc3CC(=O)O)coc12` [Compound 151d, 2-(2-((5-(3-(aminomethyl)phenyl)-7-(isobutylamino)benzofuran-3-yl)methoxy)phenyl)acetic acid], the half-inhibitory concentration (IC50) is less than 1 µM. As to `NCc1cccc(-c2ccc3occ(COc4c(CC(=O)O)cccc4C(N)=O)c3c2)c1` [Compound 114i, 2-(2-((5-(3-(aminomethyl)phenyl)benzofuran-3-yl)methoxy)-3-carbamoylphenyl)acetic acid], the IC50 fell in the range of 1 to 10 µM. As for `NCc1cccc(-c2cc(CN3CC[C@H](F)C3)c3occ(COc4ccccc4CC(=O)O)c3c2)c1` [Compound 180d, (S)-2-(2-((5-(3-(aminomethyl)phenyl)-7-((3-fluoropyrrolidin-1-yl)methyl)benzofuran-3-yl)methoxy)phenyl)acetic acid], the IC50 is less than 1 µM. As to `COc1ccc(CC(=O)O)c(OCc2c(C)oc3ccc(-c4cccc(CN)c4F)cc23)c1` [Compound 201b, 2-(2-((5-(3-(aminomethyl)-2-fluorophenyl)-2-methylbenzofuran-3-yl)methoxy)-4-methoxyphenyl)acetic acid], the IC50 was less than 1 µM.

Consider `NCc1cccc(-c2cc([N+](=O)[O-])c3oc(C(=O)O)c(COc4ccccc4CC(=O)O)c3c2)c1` [Compound 59g, 5-(3-(aminomethyl)phenyl)-3-((2-(carboxymethyl)phenoxy)methyl)-7-nitrobenzofuran-2-carboxylic acid], for which the IC50 is less than 1 µM. As to `NCc1cccc(-c2ccc3occ(COc4cccc(CC(=O)O)c4)c3c2)c1` [Compound 4d, 2-(3-((5-(3-(aminomethyl)phenyl)benzofuran-3-yl)methoxy)phenyl)acetic acid], the IC50 was in the range of 1 to 10 µM. For `COc1ccc(CC(=O)O)c(OCc2c(F)oc3ccc(-c4cccc(CN)c4)cc23)c1` [Compound 172f, 2-(2-((5-(3-(aminomethyl)phenyl)-2-fluorobenzofuran-3-yl)methoxy)-4-methoxyphenyl)acetic acid], the concentration for half-maximal inhibition (IC50) was less than 1 µM. On to `CCCc1oc2ccc(-c3cccc(CN)c3F)cc2c1COc1cc(OC)ccc1CC(=O)O` [Compound 297b, 2-(2-((5-(3-(aminomethyl)-2-fluorophenyl)-2-propylbenzofuran-3-yl)methoxy)-4-methoxyphenyl)acetic acid], for which the 50% inhibitory concentration (IC50) is less than 1 µM. As for `CC(C)n1nc(C(=O)Nc2ccccc2C(=O)O)c2cc(-c3cccc(CN)c3)ccc21` [Compound 314e, 2-(5-(3-(aminomethyl)phenyl)-1-isopropyl-1H-indazole-3-carboxamido)benzoic acid], the figure is more than 10 µM; as for `COc1c(CN)cccc1-c1cc2c(COc3ccccc3CC(=O)O)cccc2o1` [Compound 300d, 2-(2-((2-(3-(aminomethyl)-2-methoxyphenyl)benzofuran-4-yl)methoxy)phenyl)acetic acid], 1 to 10 µM; as for `Cc1ccc(CC(=O)O)c(OCc2c3cc(-c4cccc(CN)c4)ccc3nn2C(C)C)c1` [Compound 256c, 2-(2-((5-(3-(aminomethyl)phenyl)-2-isopropyl-2H-indazol-3-yl)methoxy)-4-methylphenyl)acetic acid], less than 1 µM. As for `CCCc1oc2ccc(-c3cccc(CN)c3)cc2c1COc1cc(C)ccc1CC(=O)O` [Compound 285c, 2-(2-((5-(3-(aminomethyl)phenyl)-2-propylbenzofuran-3-yl)methoxy)-4-methylphenyl)acetic acid], the figure is less than 1 µM.
